Results taken from patent publication US5177015A, “Onco-developmentally regulated α-N-acetylgalactosaminyltransferase” (Fred Hutchinson Cancer Research Centre, priority 1992, dated 1993).
Each block holds one compound with its values, some of them ahead of it. Ends that are not written are not given here.

Tests used:
[1] = tested on: onco-developmentally regulated α-N-acetylgalactosaminyltransferase; experiment: Solubilization of the enzyme with detergents; assay type: biochemical, human
From the text: The particulate membrane fraction can be prepared according to the method of Holmes, E. H. et al. ((1985) J. Biol. Chem. 260, 7619-7627).

[2] = tested on: onco-developmentally regulated α-N-acetylgalactosaminyltransferase (HUH-7 homogenate); experiment: Variation of incubation time (kinetics of α-GalNAc transfer to synthetic peptide); assay type: biochemical, human; settings: 200 nmol TPI, Tris pH 7.6, 37°, incubated 10 min. to 24 hours
Description: C. Variation of incubation time. The standard reaction mixture described in Example 1 using TPI was incubated for 10 min to 24 hr. open circles, with TPI; closed circles, without TPI (control).
In order to determine the kinetics of α-GalNAc transfer to synthetic peptide, a reaction mixture containing 12.5 μmol Tris, pH 7.6, 200 nmol TPI, 0.3 nmol UDP[^3 H]-GalNAc, 25 nmol UDP-GalNAc, 5 μmol MgCl2, 0.5 μmol CaCl2 and homogenized hepatoma cells (HUH-7) was incubated for 10 min. to 24 hours at 37°. A parallel control was run without TPI. At the end of the incubation periods, the samples were treated as described in Example 1.

[3] = tested on: α-N-acetylgalactosaminyltransferase in crude homogenates of human hepatoma cells (HUH-7); experiment: Specific activity of α-N-acetylgalactosaminyltransferase toward various acceptors; assay type: biochemical; settings: 200 nmol acceptor, HUH-7 homogenate, 25 mM Tris, 10 mM MgCl2, 1 mM CaCl2, pH 7.6, 2 hrs at 37° C., FDC-6 immunoaffinity
Description: 8×10^7 hepatoma cells (HUH-7) cultured in serum-free medium (Dulbecco-Modified Eagles Medium) were homogenized in a Potter-Elvehjem homogenizer with 200 μl of distilled water. 300 μl of tris buffer solution, consisting of 25 mM tris, 10 mM MgCl2 and 1 mM CaCl2, pH 7.6, was added. 0.3 nmol UDP[^3 H]-GalNAc (specific activity 8.7 Ci/mmol, New England Nuclear Research Product) and 25 nmol UDP-GalNAc were added and incubated for 2 hrs at 37° C. The incubation mixture was centrifuged at 10,000 rpm for 30 min. Supernatant was applied onto a 0.5 ml Sepharose 4B precolumn, followed by a 0.5 ml FDC-6 immunoaffinity column containing 10 mg of purified FDC-6 antibody/ml as described by Matsuura, H. et al. ((1988) J. Biol. Chem. 263, 3314-3322). Immunoprecipitation using 200 μl of FDC-6 binding Sepharose 4B was also performed as described by Bigler R. D. et al ((1988) J. Immunol. 144 21). Supernatants were incubated for 1 hr at 20° C. The column or immunoprecipitate was washed with 1M NaCl in 50 mM Tris buffer, pH 7.4, and eluted with 2.5M potassium thiocyanate in the same buffer solution. The eluate and washings were pooled and aliquots were counted. The same incubation mixture without addition of synthetic peptides or FN was used as a control.

[4] = tested on: onco-developmentally regulated α-N-acetylgalactosaminyltransferase (hepatoma cell homogenate); experiment: Effect of UDP-GalNAc concentration (Hanes-Woolf plot of saturation data); assay type: biochemical, human; settings: UDP-GalNAc 0.6 μM to 200 μM, 200 nmol TPI, read-out: apparent Km for UDP-GalNAc
Description: B. Effect of UDP-GalNAc concentration. A Hanes-Woolf plot of saturation data was obtained by varying UDP-GalNAc concentration from 0.6 μM to 200 μM. The reaction was conducted as described in Example 2 in the presence of 100 mg protein and 200 nmol TPI. The specific activity of UDP[^3 H]-GalNAc utilized was 4×10^6 cpm/nmol.
The apparent Km for UDP-GalNAc can be determined by generating a Hanes-Woolf plot of saturation data obtained by varying the UDP-GalNAc concentration at a constant cellular or tissue protein concentration and a constant substrate concentration. A preferred substrate for this assay is TPI.
A Hanes-Woolf plot of saturation data was obtained by varying UDP-GalNAc concentration from 0.6 μM to 200 μM. The reaction as conducted as described in Example 1 in the presence of 100 mg protein of hepatoma cell homogenate and 200 nmol TPI. The specific activity of the UDP[^3 H]-GalNAc used was 4×10^6 cpm/nmol. The reacted samples were also treated as described in Example 1.

[5] = tested on: onco-developmentally regulated α-N-acetylgalactosaminyltransferase (HUH-7 homogenate); settings: 1 mM EDTA, 25 mM Tris buffer, pH 7.6
Description: In the present case, the requirement for metal ion for the onco-developmentally regulated α-N-acetylgalactosaminyltransferase was determined in 25 mM Tris buffer, pH 7.6, supplemented with 20 mM MnCl2, 10 mM MgCl2, 1 mM CaCl2 and combinations of two of these or 1 mM EDTA.
Hepatoma cell (HUH-7) homogenates and the synthetic and natural peptides set forth in the Table in Example 1 were prepared as in Example 1 and incubated as described in Example 1 using 25 mM Tris buffer, pH 7.6; supplemented with 20 mM MnCl2, 10 mM MgCl2, 1 mM CaCl2 and combinations of two of these or 1 mM EDTA.

Compound: C[C@H](CCC(=O)NCCC[N+](C)(C)CC(O)CS(=O)(=O)[O-])[C@H]1CC[C@H]2[C@@H]3[C@H](O)C[C@@H]4C[C@H](O)CC[C@]4(C)[C@H]3C[C@H](O)[C@]12C (some centres unmarked) [CHAPSO, 3-(3-cholamidopropyldimethylammonio)-1-(20-hydroxy-1-propanesulfonate)]
Effect of solubilization with detergent on enzyme activity [1]: does not enhance enzyme activity

Time over which α-GalNAc transfer to synthetic peptide is linear [2]: about 2 hours
Compound: thr-pro-phe-val-thr-his-pro-gly-tyr-asp-thr-gly-asn-gly-ile (TPFVTHPGYDTGNGI) [TPI]
Activity (specific activity of the enzyme to the acceptor) [3]: 0.11 pmol/hr/mg protein

Compound: Triton X-100
Effect of solubilization with detergent on enzyme activity [1]: does not enhance enzyme activity

Compound: VTHPGY [VTY, val-thr-his-pro-gly-tyr]
Activity (specific activity of the enzyme to the acceptor) [3]: 0.03 pmol/hr/mg protein

Compound: thr-pro-phe-val-thr-his-pro-gly-tyr-asp-thr-gly-asn-gly-ile-gln-leu-pro-gly-thr-ser-gly-gln-gln-pro-ser-val-gly-gln-gln (TPFVTHPGYDTGNGIQLPGTSGQQPSVGQQ) [TPQ]
Activity (specific activity of the enzyme to the acceptor) [3]: 0.06 pmol/hr/mg protein

Compound: CC(=O)NC1C(OP(=O)(O)OP(=O)(O)OCC2OC(n3ccc(=O)[nH]c3=O)C(O)C2O)OC(CO)C(O)C1O (centres unmarked) [UDP-GalNAc]
Km [4]: ~48 µM

Compound: O=C(O)CN(CCN(CC(=O)O)CC(=O)O)CC(=O)O [EDTA]
Enzyme activity in the presence of EDTA [5]: totally abolished
